Measurements from patent US20050176735A1, “Polymorphs of zaleplon and methods for the preparation thereof” (priority 2000, published 2005).

Legend:
[1] = Moisture adsorption/desorption isotherm (moisture balance); type: physicochemical; details: for Hygroscopicity from moisture adsorption/desorption curves: 25° C., 5 to 95% relative humidity
Procedure: Moisture adsorption; desorption data were collected on a VTI SGA-100 moisture balance system. available from VTI Corporation of Hialeah, Fla. For adsorption isotherms an adsorption range of 5 to 95% relative humidity and a desorption range of 95 to 5% relative humidity in 10% relative humidity increments were used for analysis. The samples were not dried prior to analysis. Equilibrium criteria used for analysis were less than 0.0100 weight percent change in 5 minutes with a maximum equilibration time of 3 hours if the weight criterion was not met. Data were not corrected for the initial moisture content of-the samples.

[2] = Solid-state stability on storage at controlled temperature and relative humidity or on heating; details: for Stability on storage (form conversion): about 60° C. and about 75% relative humidity; for Stability on heating (form conversion): heated at about 80° C.
[3] = Relative solubility in water

Row | SMILES | Hygroscopicity from moisture adsorption/desorption curves [1] | Relative stability versus the other forms ([2]; absence of water) | General stability to humidity and temperature ([2]; broad range of humidity and temperature conditions) | Form conversion in solvent (solvent system containing an organic solvent and optionally water) | Form conversion in water (water) | Solubility in water relative to the other form [3] | Stability on storage ([2]; about 40° C. and about 75% relative humidity for 4 weeks) | Stability on storage (form conversion) ([2]; 4 weeks (same time period)) | Stability on heating (form conversion) [2] | Relative humidity up to which the form is generally anhydrous ([1]; relative humidity) | Relative stability in aqueous and non-aqueous environments (aqueous and non-aqueous environments) | Stability on storage of hydrates (form conversion) ([2]; about 40° C. and about 75% relative humidity, time not stated) | Stability on storage (form conversion) ([2]; time not stated)
1 | CCN(C(C)=O)c1cccc(-c2ccnc3c(C#N)cnn23)c1 [Form I, N-[3-(3-cyanopyrazolo[1,5a]pyrimidin-7-yl)phenyl]-N-ethylacetamide] | non-hygroscopic | more stable than Forms II and III | stable | – | – | – | – | – | – | – | – | – | –
2 | CCN(C(C)=O)c1cccc(-c2ccnc3c(C#N)cnn23)c1 [Form II, N-[3-(3-cyanopyrazolo[1,5a]pyrimidin-7-yl)phenyl]-N-ethylacetamide] | moisture content of Form II of zaleplon varies depending on the relative humidity of its environment | – | – | converts into Form III | converted into Form III | mole soluble in water than Form III | stable | converts into Form I | converts into Form I | – | – | – | –
3 | CCN(C(C)=O)c1cccc(-c2ccnc3c(C#N)cnn23)c1 [Form III, N-[3-(3-cyanopyrazolo[1,5a]pyrimidin-7-yl)phenyl]-N-ethylacetamide] | – | – | – | – | – | – | – | – | converts to Form I | about 30% | more stable in aqueous and non-aqueous environments than Form II | resulting in a mixture of Forms II and III | converts to Form I
